The values that follow are results of earlier work, collected in patent US6908924B2, “N4-acylcytosine-1,3-dioxolane nucleosides for treatment of viral infections” (Pharmasset, Inc., priority 2001, dated 2005).

For one series, the system named is HIV-1. The settings on record: as a reverse transcriptase inhibitor (RTI).
The target of series [1] is HIV reverse transcriptase (HIV-RT) (Human immunodeficiency virus type 1 group M subtype B, UniProt P04585).

Consider `Nc1nc(N)c2ncn([C@H]3CO[C@@H](CO)O3)c2n1` [DAPD, (−)-(2R,4R)-2-amino-9-[(2-hydroxymethyl)-1,3-dioxolan-4-yl]adenine], for which, in the series on HIV-1, the “inhibition of HIV-1 replication in vitro” value is given as “selective inhibitor”.

By Ki is commonly meant the dissociation constant of the complex between target and ligand, obtained from inhibition or displacement. `Nc1nc2c(ncn2[C@H]2CO[C@@H](COP(=O)(O)OP(=O)(O)OP(=O)(O)O)O2)c(=O)[nH]1` [DXG-TP]: in series [1], the Ki was 19 nM.
